From BindingDB's records for doi:10.1124/jpet.104.081562 (Mayo Clinic, 2005)
pKi: −log10 of the molar value.

biological target: T1, Promotilin (Homo sapiens, UniProt P12872)
T1 sequence (P12872 whole entry): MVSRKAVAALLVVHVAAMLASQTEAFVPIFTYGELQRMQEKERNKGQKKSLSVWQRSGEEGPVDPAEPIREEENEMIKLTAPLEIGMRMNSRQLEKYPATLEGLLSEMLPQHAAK

pKi	Structure (SMILES)
7.30	CC[C@H](C)[C@H](NC(=O)[C@H](CCCN=C(N)N)NC(=O)[C@H](CCC(N)=O)NC(=O)[C@H](CC(C)C)NC(=O)[C@H](CCC(=O)O)NC(=O)CNC(=O)[C@H](Cc1ccc(O)cc1)NC(=O)[C@@H](NC(=O)[C@H](Cc1ccc(C(=O)c2ccccc2)cc1)NC(=O)[C@@H](NC(=O)[C@@H]1CCCN1C(=O)[C@@H](NC(=O)[C@@H](N)Cc1ccccc1)C(C)C)[C@@H](C)CC)[C@@H](C)O)C(=O)N[C@@H](CCC(N)=O)C(=O)N[C@@H](CCC(=O)O)C(=O)N[C@@H](CCCCN)C(=O)N[C@@H](CCC(=O)O)C(=O)N[C@@H](CCCN=C(N)N)C(=O)N[C@@H](CC(N)=O)C(=O)N[C@@H](CCCCN)C(=O)NCC(=O)N[C@@H](CCC(N)=O)C(=O)O [[L-Bpa5,Ile13]Motilin]
6.38	CC[C@H](C)[C@H](NC(=O)[C@H](CCCN=C(N)N)NC(=O)[C@H](CCC(N)=O)NC(=O)[C@H](CC(C)C)NC(=O)[C@H](CCC(=O)O)NC(=O)CNC(=O)[C@H](Cc1ccc(O)cc1)NC(=O)[C@@H](NC(=O)[C@@H](Cc1ccc(C(=O)c2ccccc2)cc1)NC(=O)[C@@H](NC(=O)[C@@H]1CCCN1C(=O)[C@@H](NC(=O)[C@@H](N)Cc1ccccc1)C(C)C)[C@@H](C)CC)[C@@H](C)O)C(=O)N[C@@H](CCC(N)=O)C(=O)N[C@@H](CCC(=O)O)C(=O)N[C@@H](CCCCN)C(=O)N[C@@H](CCC(=O)O)C(=O)N[C@@H](CCCN=C(N)N)C(=O)N[C@@H](CC(N)=O)C(=O)N[C@@H](CCCCN)C(=O)NCC(=O)N[C@@H](CCC(N)=O)C(=O)O [[D-Bpa5,Ile13]Motilin]
8.64	CC[C@H](C)[C@H](NC(=O)[C@@H]1CCCN1C(=O)[C@@H](NC(=O)[C@@H](N)Cc1ccccc1)C(C)C)C(=O)N[C@@H](Cc1ccccc1)C(=O)N[C@H](C(=O)N[C@@H](Cc1ccc(O)cc1)C(=O)NCC(=O)N[C@@H](CCC(=O)O)C(=O)N[C@@H](CC(C)C)C(=O)N[C@@H](CCC(N)=O)C(=O)N[C@@H](CCCNC(=N)N)C(=O)N[C@@H](CCSC)C(=O)N[C@@H](CCC(N)=O)C(=O)N[C@@H](CCC(=O)O)C(=O)N[C@@H](CCCCN)C(=O)N[C@@H](CCC(=O)O)C(=O)N[C@@H](CCCNC(=N)N)C(=O)N[C@@H](CC(N)=O)C(=O)N[C@@H](CCCCN)C(=O)NCC(=O)N[C@@H](CCC(N)=O)C(=O)O)[C@@H](C)O [CAS_52906-92-0]
